{
  "source": "patent US20100303936A1",
  "about": "“METHOD OF REDUCING FAT ACCUMULATION AND INDUCING WEIGHT LOSS” (Bionovo, Inc. A Delaware Corporation, priority 2009, published 2010)",
  "assay": "Ovariectomized mice on high fat diet (HFD): body weight, abdominal fat, uterus and mammary gland",
  "type": "in vivo",
  "description": "To test the effects of the two PEs (3 and 39) in animals, 10 week old ovariectomized C57/B16 female mice were placed on a high fat diet (HFD) for 50 days to increase body weight and abdominal fat. After gaining weight, the mice were treated orally for 6 weeks with the two PEs separately while being kept on HFD. The vehicle-treated (placebo) control mice continued to gain weight (9% weight increase) even after treatment. The E2-treated mice, which served as positive controls lost 20.5% of their weight. […] The abdominal fat weight dropped by 48% or 32% in the PE-treated groups (3, 39, respectively) and 80% in E2-treated mice compared to control. The growth of mammary gland (MG) and uteri was assessed by measuring MG and uterine weights and by analyzing MG morphology in whole-mounts. […] FIG. 4.",
  "key": {"[1]": {"conditions": "ovariectomized mice on HFD, 42 days"}},
  "note": "Entries after “also recorded” stand apart in the source; their conditions may differ.",
  "data": [
    {"smiles": "C[C@]12CC[C@@H]3c4ccc(O)cc4CC[C@H]3[C@@H]1CC[C@@H]2O", "note": "[Extract E2, estradiol]", "values": [
      {"measurement": "body weight lost", "setting": "ovariectomized C57/B16 female mice on HFD, treated 6 weeks", "result": 20.5, "unit": "%"},
      {"measurement": "abdominal fat weight drop compared to control", "setting": "ovariectomized mice on HFD, 6 weeks treatment", "result": 80, "unit": "%"},
      {"measurement": "mammary gland morphology (ducts, histology / whole-mounts)", "setting": "[1]", "result": "elongation and branching of ducts in mammary tissue; also recorded: induced elongation and branching of mammary ducts"},
      {"measurement": "uterine weight (in words)", "setting": "[1]", "result": "induced uterine tissue weight gain; also recorded: induced significant weight gain in the uterus"}
    ]}
  ]
}
